“Also recorded” adds a separate entry of the source.
What was measured:
40K-PEG-rFVIIa [1] = target: T1, 40K-PEG-rFVIIa (Homo sapiens, UniProt P08709); test: Stability of liquid 40K-PEG-rFVIIa formulations: clot activity (one-stage coagulation assay, Assay 3); assay type: biochemical; conditions: 2 months at 5° C.; 28 mM benzaldehyde or 180 mM 5-formyl-4-methylimidazole
T1 construct: has been cleaved at the peptide bond preceding position 153
T1 sequence (P08709 213-466 limits assumed): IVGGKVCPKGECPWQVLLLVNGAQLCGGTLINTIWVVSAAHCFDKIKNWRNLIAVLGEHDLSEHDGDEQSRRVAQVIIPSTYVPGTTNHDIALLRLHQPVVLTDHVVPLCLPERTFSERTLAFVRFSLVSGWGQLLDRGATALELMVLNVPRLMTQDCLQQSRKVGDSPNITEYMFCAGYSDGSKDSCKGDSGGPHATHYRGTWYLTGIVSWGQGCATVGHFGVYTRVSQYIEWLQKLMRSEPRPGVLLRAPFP
T1 sequence (P08709 61-212 limits assumed): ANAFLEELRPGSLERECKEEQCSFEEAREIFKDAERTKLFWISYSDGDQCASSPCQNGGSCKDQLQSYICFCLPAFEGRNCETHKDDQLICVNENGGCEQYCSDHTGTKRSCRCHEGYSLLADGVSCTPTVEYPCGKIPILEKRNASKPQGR
Protocol: The clot assay is used to assess the ability of Factor VIIa polypeptides to make blood clot. For this purpose, the sample to be tested is diluted in 50 mM PIPES-buffer (pH 7.5), 0.1% BSA and 40 μl is incubated with 40 μl of Factor VII deficient plasma and 80 μl of human recombinant tissue factor containing 10 mM Ca2+ and synthetic phospholipids. Coagulation times (clotting times) are measured and compared to a standard curve using a reference standard in a parallel line assay.
A stability experiment with liquid formulations containing 40K-PEG-rFVIIa was performed. The formulations had the following compositions: […]
The PEG moiety is excluded in the specification of 40K-PEG-rFVIIa concentration. pH was 6.5 in all samples. At 0, ½, 1 and 2 months, 70 μl aliquots were taken from the stability sample, diluted to 1 mg/ml 40K-PEG-rFVIIa and assayed for clot activity (Δactivity), FVIIa polypeptide fragmentation (Δfragment), dimer/2-PEG, and high molecular weight protein.

40K-PEG-rFVIIa [2] = target: T1, 40K-PEG-rFVIIa; test: Stability of liquid 40K-PEG-rFVIIa formulations: heavy chain fragmentation (Assay 5); assay type: physicochemical; conditions: 2 months at 5° C.; 28 mM benzaldehyde or 180 mM 5-formyl-4-methylimidazole
Protocol: For the purpose of determining the content of heavy chain fragmentation products of 40K-PEG-rFVIIa, a reverse phase HPLC was run on a ACE 3 μm C4, 300 Å, 4.6×100 mm column (Advanced Chromatography Technologies, part. no. ACE-213-1046). Column temperature: 60° C. A-buffer: 0.05% v/v trifluoracetic acid. B-buffer: 0.06% v/v trifluoracetic acid, 80% v/v acetonitrile. Denaturation buffer: 6M Guanidine hydrochloride, 50 mM Tris, 5 mM calcium chloride, pH 7,5. Samples are prepared from 50 μl analysis sample+50 μl denaturation buffer+5 μl DTT+1 μl acetic acid and incubated at 60° C. for 15 min.
The column was eluted with a linear gradient from 35 to 80% B in 30 minutes. Flow rate: 0.7 mL/min. Detection: 214 nm. Load: 25 μg FVIIa. The initial content of heavy chain degradation products is subtracted from the measured content of heavy chain degradation product, i.e. the initial content of heavy chain degradation products is set to 0%. The content of heavy chain degradation products at the time x is then calculated as: […]
wherein HCDP(x) is the measured content of heavy chain degradation products at the time x, HCDP(0) is the measured initial content of heavy chain degradation products, and FVII(x) is the content of the intact Factor VII polypeptide at the time x.
A stability experiment with liquid formulations containing 40K-PEG-rFVIIa was performed. […]

FVIIa = target: T2, FVIIa (Homo sapiens, UniProt P08709); test: Thermo-fluorescence (thermal shift) measurement of FVIIa denaturation temperature in the presence of aldehydes; assay type: physicochemical; conditions: 25 mM imidazole, pH 6.5, 20 mM CaCl2, 60 mg/ml sucrose; various aldehyde concentrations; FIG. 2
T2 construct: has been cleaved at the peptide bond preceding position 153
T2 sequence (P08709 213-466 limits assumed): T1 sequence (P08709 213-466 limits assumed)
T2 sequence (P08709 61-212 limits assumed): T1 sequence (P08709 61-212 limits assumed)
Protocol: The effect of aldehydes on Factor VIIa amidolytic activity is shown in an in vitro hydrolysis assay (20 mM imidazole, pH 6.5, 20 mM CaCl2), the results of which are illustrated in FIG. 1. A clear inhibition of amidolytic activity is observed. However, the apparent inhibition could be due to FVIIa denaturation. In order to address this issue, the denaturation temperature of FVIIa was measured in the presence of aldehydes. The measurement was performed by thermo-fluorescence, essentially as the thermal shift assay described by Lo et al., Analytical Biochemistry 332, 153-159 (2004). The denaturation temperature was determined as the point of maximum slope of the fluorescence intensity curve. The denaturation temperature is shown in FIG. 2 at various concentrations of aldehydes (25 mM imidazole, pH 6.5, 20 mM CaCl2, 60 mg/ml sucrose). […] Therefore, the inhibitory activity of these three compounds may be caused by denaturation.

rFVIIa = target: T3, rFVIIa (Homo sapiens, UniProt P08709); test: Stability experiment: heavy chain fragmentation of rFVIIa after 4 weeks in benzaldehyde solutions; assay type: physicochemical; conditions: 4 weeks at 5° C.; 12.5 mg/ml rFVIIa, pH 6.5; 0, 10, 20, 40 and 80 mM benzaldehyde; FIG. 5
T3 construct: has been cleaved at the peptide bond preceding position 153
T3 sequence (P08709 213-466 limits assumed): T1 sequence (P08709 213-466 limits assumed)
T3 sequence (P08709 61-212 limits assumed): T1 sequence (P08709 61-212 limits assumed)
Protocol: In the below working examples the content of heavy chain fragmentation products of Factor VIIa is determined by RP-HPLC as described in the following:
Reverse phase HPLC was run on a proprietary 4.5×250 mm butyl-bonded silica column with a particle size of 5 μm and pore size 300 Å. Column temperature: 70° C. A-buffer: 0.1% v/v trifluoracetic acid. B-buffer: 0.09% v/v trifluoracetic acid, 80% v/v acetonitrile. The column was eluted with a linear gradient from X to (X+13) % B in 30 minutes. X was adjusted so that FVIIa elutes with a retention time of approximately 26 minutes. Flow rate: 1.0 mL/min. Detection: 214 nm. Load: 25 μg FVIIa.
A stability experiment with liquid formulations containing FVIIa was performed. Conditions in all samples were 10 mM His, pH 6.5, 20 mM CaCl2, 6% sucrose, 0.5 mg/ml methionine, 12.5 mg/ml rFVIIa. 50 μl solutions with 0, 10, 20, 40 and 80 mM benzaldehyde in 500 μl cryotubes were prepared, incubated at 5° C. for 4 weeks and then frozen to −80° C. In addition, a reference sample without benzaldehyde was prepared and immediately frozen to −80° C. For analysis, all samples were thawed, diluted to 1 ml volume in 10 mM histidine, pH 5.5, and analysed for heavy chain fragmentation.

Compound | Loss of activity / FVIIa polypeptide stability compared to the reference formulation (40K-PEG-rFVIIa [1]) | Fragmentation compared to the reference formulation (40K-PEG-rFVIIa [2]) | Effect on Factor VIIa denaturation temperature (melting point) (FVIIa) | Fragmentation as a percentage of the total Factor VIIa content (% fragmented) (rFVIIa)
O=Cc1ccccc1 [benzaldehyde] | small reduction in fragmentation and loss of activity | small reduction in fragmentation | drops significantly at high aldehyde concentration; also recorded: affect the denaturation temperature at high concentrations | decreases as the concentration of benzaldehyde is increased; also recorded: much lower in the presence of benzaldehyde, particularly in concentrations above 10 mM
Cc1nc[nH]c1C=O [5-formyl-4-methylimidazol, 5-formyl-4-methylimidazole] | very large improvement in FVIIa polypeptide stability | very large reduction in fragmentation |  | 

Reference: patent publication US20100303786A1, “Stabilisation of Liquid-Formulated Factor VII(A) Polypeptides by Aldehyde-Containing Compounds” (Novo Nordisk Health Care AG, priority 2007, published 2010)
